The structures appear in SMILES notation.

This experiment deals with T1, GST-tagged-Wee1 kinase (Homo sapiens, UniProt P30291).
T1 construct: purchased Carnabio 05-177
T1 sequence (P30291 whole entry): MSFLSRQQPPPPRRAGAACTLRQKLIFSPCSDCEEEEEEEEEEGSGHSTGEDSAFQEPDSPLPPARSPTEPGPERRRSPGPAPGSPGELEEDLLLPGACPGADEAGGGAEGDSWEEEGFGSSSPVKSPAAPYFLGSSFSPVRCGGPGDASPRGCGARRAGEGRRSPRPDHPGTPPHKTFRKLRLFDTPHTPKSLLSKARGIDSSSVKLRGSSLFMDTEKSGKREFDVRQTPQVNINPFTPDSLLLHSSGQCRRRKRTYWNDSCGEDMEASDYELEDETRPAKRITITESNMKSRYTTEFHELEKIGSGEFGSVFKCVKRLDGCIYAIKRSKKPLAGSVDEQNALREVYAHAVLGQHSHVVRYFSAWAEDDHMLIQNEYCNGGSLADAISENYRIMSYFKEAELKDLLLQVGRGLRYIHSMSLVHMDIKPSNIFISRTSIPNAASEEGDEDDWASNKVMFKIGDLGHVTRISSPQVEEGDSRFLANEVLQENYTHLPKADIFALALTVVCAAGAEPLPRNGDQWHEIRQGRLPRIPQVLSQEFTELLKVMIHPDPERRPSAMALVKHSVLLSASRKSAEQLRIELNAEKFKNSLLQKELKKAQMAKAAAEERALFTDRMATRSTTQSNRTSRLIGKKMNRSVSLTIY
The experiment can be described thus: Wee1 time-resolved fluorescence equilibrium binding assay (displacement of Oregon Green-labeled ATP-competitive kinase probe). Conditions: enzyme binding data; GST-tagged-Wee1 kinase 2 nM, fluorescent probe 300 nM, inhibitor 0.003 to 10 micromolar, 1 hour incubation; read-out: Wee-1 binding (Ki nM). The method, then:
Wee1 kinase was assayed using a time-resolved fluorescence equilibrium binding assay monitoring displacement of a rapidly reversible Oregon Green-labeled ATP-competitive kinase probe (N-(2-(2-(2-(4-(4-(5-chloro-4-(2-(1-hydroxycyclobutyl)thiazol-5-yl)-1H-pyrrolo[2,3-b]pyridin-2-yl)phenyl)piperazin-1-yl)ethoxy)ethoxy)ethyl)-2′,7′-difluoro-3′,6′-dihydroxy-3-oxo-3H-spiro[isobenzofuran-1,9′-xanthene]-5-carboxamide) by competitive Wee1 inhibitors.
Table 1 depicts enzyme binding data (Ki)for exemplary compounds.
As for `CN1CCC(c2ccc(Nc3ncc4c(=O)n(-c5c(Cl)cccc5Cl)cc(C(F)F)c4n3)cc2)CC1` [Example 82, 6-(2,6-dichlorophenyl)-8-(difluoromethyl)-2-{[4-(1-methylpiperidin-4-yl)phenyl]amino}pyrido[4,3-d]pyrimidin-5 (6H)-one], the inhibition constant Ki is 0.1 nM.
Next, `Cc1cccc(O)c1-n1cc(C)c2nc(Nc3ccc4c(c3)CNCC4)ncc2c1=O` [Example 118, 6-(2-hydroxy-6-methylphenyl)-8-methyl-2-(1,2,3,4-tetrahydroisoquinolin-7-ylamino)pyrido[4,3-d]pyrimidin-5(6H)-one]: 0.6 nM; `O=c1c2cnc(Nc3ccc4c(c3)CC(N3CCCC3)C4)nc2c(C(F)F)cn1-c1c(Cl)cccc1Cl` (stereo not drawn) [Example 95, 6-(2,6-dichlorophenyl)-8-(difluoromethyl)-2-{[2-(pyrrolidin-1-yl)-2,3-dihydro-1H-inden-5-yl]amino}pyrido[4,3-d]pyrimidin-5(6H)-one]: 0.38 nM.
Next, `Cc1cn(-c2c(F)cccc2Cl)c(=O)c2cnc(Nc3ccc4c(c3)CNCC4)nc12` [Example 75, 6-(2-chloro-6-fluorophenyl)-8-methyl-2-(1,2,3,4-tetrahydroisoquinolin-7-ylamino)pyrido[4,3-d]pyrimidin-5(6H)-one]: 0.8 nM.
Next, `Cc1cn(-c2c(Cl)cccc2Cl)c(=O)c2cnc(Nc3ccc(S(=O)(=O)CCN(C)C)cc3)nc12` [Example 96, 6-(2,6-dichlorophenyl)-2-[(4-{[2-(dimethylamino)ethyl]sulfonyl}phenyl)amino]-8-methylpyrido[4,3-d]pyrimidin-5(6H)-one]: 1.8 nM; `Cc1cn(-c2c(Cl)cccc2Cl)c(=O)c2cnc(Nc3ccc(NCCN(C)C)cc3)nc12` [Example 130, 6-(2,6-dichlorophenyl)-2-[(4-{[2-(dimethylamino)ethyl]amino}phenyl)amino]-8-methylpyrido[4,3-d]pyrimidin-5(6H)-one]: 0.3 nM; `Cc1cccc(Cl)c1-n1cc(C)c2nc(Nc3ccc4c(c3)CN(C)CC43CC3)ncc2c1=O` [Example 90, 6-(2-chloro-6-methylphenyl)-8-methyl-2-[(2′-methyl-2′,3′-dihydro-1′H-spiro[cyclopropane-1,4′-isoquinolin]-7′-yl)amino]pyrido[4,3-d]pyrimidin-5(6H)-one]: 0.193 nM.
Regarding `Cc1cn(-c2c(Cl)cccc2Cl)c(=O)c2cnc(Nc3ccc(N4CCN(CCCN(C)C)CC4)cc3)nc12` [Example 131, 6-(2,6-dichlorophenyl)-2-[(4-{4-[3-(dimethylamino)propyl]piperazin-1-yl}phenyl)amino]-8-methylpyrido[4,3-d]pyrimidin-5(6H)-one], the Ki is 0.2 nM.
Next, `O=c1c2cnc(Nc3ccc4c(c3)CCNC4)nc2c(C(F)F)cn1-c1c(Cl)cccc1Cl` [Example 93, 6-(2,6-dichlorophenyl)-8-(difluoromethyl)-2-(1,2,3,4-tetrahydroisoquinolin-6-ylamino)pyrido[4,3-d]pyrimidin-5(6H)-one]: 0.358 nM; `Cc1cccc(F)c1-n1cc(C)c2nc(Nc3ccc(N4CCC(N(C)C)CC4)cc3)ncc2c1=O` [Example 104, 2-({4-[4-(dimethylamino)piperidin-1-yl]phenyl}amino)-6-(2-fluoro-6-methylphenyl)-8-methylpyrido[4,3-d]pyrimidin-5(6H)-one]: 0.9 nM.
For `Cc1nn(C)c(C)c1-n1cc(C)c2nc(Nc3ccc4c(c3)CNCC4)ncc2c1=O` [Example 119, 8-methyl-2-(1,2,3,4-tetrahydroisoquinolin-7-ylamino)-6-(1,3,5-trimethyl-1H-pyrazol-4-yl)pyrido[4,3-d]pyrimidin-5(6H)-one], the Ki was determined as 1.6 nM.
For the molecule `CN1Cc2cc(Nc3ncc4c(=O)n(-c5c(Cl)cccc5Cl)cc(CO)c4n3)ccc2C2(CC2)C1` [Example 53, 6-(2,6-dichlorophenyl)-8-(hydroxymethyl)-2-[(2′-methyl-2′,3′-dihydro-1′H-spiro[cyclopropane-1,4′-isoquinolin]-7′-yl)amino]pyrido[4,3-d]pyrimidin-5(6H)-one], the Ki was 0.3 nM.

Source of the values: patent US9718821B2, “Pyridopyrimidinone inhibitors of kinases” (AbbVie Inc., priority 2012, dated 2017).
